# Reference: ChEMBL document CHEMBL5247592, “Discovery of novel VEGFR-2-PROTAC degraders based on the localization of lysine residues via recruiting VHL for the treatment of gastric cancer” (Eur J Med Chem, 2022)
# Calls of active or inactive are those of the source. No cut-off for these calls is given here. Residues, ends and D or L forms follow the SMILES beside them. *: point of attachment. Cbz = O=C(OCc1ccccc1)*
# Tests used:
# [1] = Cytotoxicity against human GES1 cells assessed as inhibition of cell growth incubated for 72 hrs by MTT assay; assay type: toxicity, cell-based
# [2] = Cytotoxicity against HEK293T cells assessed as inhibition of cell growth incubated for 72 hrs by MTT assay; assay type: toxicity, cell-based, HEK-293T; conditions: human
# [3] = target: T1, von Hippel-Lindau disease tumor suppressor/Vascular endothelial growth factor receptor 2 (Homo sapiens, UniProt P35968+P40337); assay: PROTAC activity at VHL/VEGFR2 in human HGC-27 cells assessed as induction of VEGRF2 protein degradation at 100 nM incubated for 2 hrs by Western blot analysis; assay type: cell-based
# T1 sequence (P35968 20-1356 limits assumed): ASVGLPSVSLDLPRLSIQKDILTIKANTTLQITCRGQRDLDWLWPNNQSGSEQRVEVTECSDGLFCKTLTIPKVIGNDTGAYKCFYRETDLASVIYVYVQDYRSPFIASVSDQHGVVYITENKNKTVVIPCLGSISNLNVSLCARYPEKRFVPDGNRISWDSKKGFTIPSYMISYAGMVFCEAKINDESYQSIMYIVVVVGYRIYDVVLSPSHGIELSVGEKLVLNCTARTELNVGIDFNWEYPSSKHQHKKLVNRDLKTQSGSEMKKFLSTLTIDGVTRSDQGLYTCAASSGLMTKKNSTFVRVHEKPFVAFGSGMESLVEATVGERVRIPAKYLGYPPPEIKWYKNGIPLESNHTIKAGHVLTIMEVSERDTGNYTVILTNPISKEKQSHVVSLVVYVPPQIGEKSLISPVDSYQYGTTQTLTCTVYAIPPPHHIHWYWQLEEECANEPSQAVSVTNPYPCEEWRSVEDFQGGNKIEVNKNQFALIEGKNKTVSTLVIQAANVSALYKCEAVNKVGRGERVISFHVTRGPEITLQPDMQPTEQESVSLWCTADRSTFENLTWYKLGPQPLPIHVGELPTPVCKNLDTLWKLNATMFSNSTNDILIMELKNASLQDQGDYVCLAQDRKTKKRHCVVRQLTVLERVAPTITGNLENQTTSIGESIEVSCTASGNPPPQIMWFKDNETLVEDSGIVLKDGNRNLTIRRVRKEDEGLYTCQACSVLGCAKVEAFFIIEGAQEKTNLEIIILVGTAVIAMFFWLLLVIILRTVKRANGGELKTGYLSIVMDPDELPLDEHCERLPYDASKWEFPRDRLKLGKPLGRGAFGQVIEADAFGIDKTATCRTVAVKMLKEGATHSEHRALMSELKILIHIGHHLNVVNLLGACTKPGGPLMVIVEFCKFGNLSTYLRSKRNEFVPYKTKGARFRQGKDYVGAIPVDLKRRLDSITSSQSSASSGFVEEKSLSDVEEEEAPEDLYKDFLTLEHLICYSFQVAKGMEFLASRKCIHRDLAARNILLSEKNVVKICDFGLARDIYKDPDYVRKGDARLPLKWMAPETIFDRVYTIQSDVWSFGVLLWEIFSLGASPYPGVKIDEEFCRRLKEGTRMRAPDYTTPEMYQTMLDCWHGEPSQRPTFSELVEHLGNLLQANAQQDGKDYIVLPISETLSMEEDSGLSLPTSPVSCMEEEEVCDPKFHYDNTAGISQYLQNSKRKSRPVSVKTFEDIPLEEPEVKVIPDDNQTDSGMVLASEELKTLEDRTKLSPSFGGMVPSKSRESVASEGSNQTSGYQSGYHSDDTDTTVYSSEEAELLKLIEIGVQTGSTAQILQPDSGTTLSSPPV
# T1 sequence (P40337 whole entry partner): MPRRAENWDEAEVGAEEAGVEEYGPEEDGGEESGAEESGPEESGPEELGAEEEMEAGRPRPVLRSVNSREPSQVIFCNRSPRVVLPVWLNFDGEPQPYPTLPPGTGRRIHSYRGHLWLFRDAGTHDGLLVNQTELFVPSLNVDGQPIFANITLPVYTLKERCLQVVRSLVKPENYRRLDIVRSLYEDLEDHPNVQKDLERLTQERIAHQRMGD
# HGC-27 = assay: Antiproliferative activity against human HGC-27 cells assessed as inhibition of cell growth incubated for 72 hrs by MTT assay; assay type: functional, cell-based; conditions: HGC-27, 72 h
# [4] = Cytotoxicity against HUVEC cells assessed as inhibition of cell growth incubated for 72 hrs by MTT assay; assay type: toxicity, cell-based; conditions: human
# [5] = target: Vascular endothelial growth factor receptor 2 (Homo sapiens, UniProt P35968); assay: Inhibition of VEGFR2 (unknown origin) by caliper mobility shift assay
# Chain of Vascular endothelial growth factor receptor 2 (P35968 whole entry): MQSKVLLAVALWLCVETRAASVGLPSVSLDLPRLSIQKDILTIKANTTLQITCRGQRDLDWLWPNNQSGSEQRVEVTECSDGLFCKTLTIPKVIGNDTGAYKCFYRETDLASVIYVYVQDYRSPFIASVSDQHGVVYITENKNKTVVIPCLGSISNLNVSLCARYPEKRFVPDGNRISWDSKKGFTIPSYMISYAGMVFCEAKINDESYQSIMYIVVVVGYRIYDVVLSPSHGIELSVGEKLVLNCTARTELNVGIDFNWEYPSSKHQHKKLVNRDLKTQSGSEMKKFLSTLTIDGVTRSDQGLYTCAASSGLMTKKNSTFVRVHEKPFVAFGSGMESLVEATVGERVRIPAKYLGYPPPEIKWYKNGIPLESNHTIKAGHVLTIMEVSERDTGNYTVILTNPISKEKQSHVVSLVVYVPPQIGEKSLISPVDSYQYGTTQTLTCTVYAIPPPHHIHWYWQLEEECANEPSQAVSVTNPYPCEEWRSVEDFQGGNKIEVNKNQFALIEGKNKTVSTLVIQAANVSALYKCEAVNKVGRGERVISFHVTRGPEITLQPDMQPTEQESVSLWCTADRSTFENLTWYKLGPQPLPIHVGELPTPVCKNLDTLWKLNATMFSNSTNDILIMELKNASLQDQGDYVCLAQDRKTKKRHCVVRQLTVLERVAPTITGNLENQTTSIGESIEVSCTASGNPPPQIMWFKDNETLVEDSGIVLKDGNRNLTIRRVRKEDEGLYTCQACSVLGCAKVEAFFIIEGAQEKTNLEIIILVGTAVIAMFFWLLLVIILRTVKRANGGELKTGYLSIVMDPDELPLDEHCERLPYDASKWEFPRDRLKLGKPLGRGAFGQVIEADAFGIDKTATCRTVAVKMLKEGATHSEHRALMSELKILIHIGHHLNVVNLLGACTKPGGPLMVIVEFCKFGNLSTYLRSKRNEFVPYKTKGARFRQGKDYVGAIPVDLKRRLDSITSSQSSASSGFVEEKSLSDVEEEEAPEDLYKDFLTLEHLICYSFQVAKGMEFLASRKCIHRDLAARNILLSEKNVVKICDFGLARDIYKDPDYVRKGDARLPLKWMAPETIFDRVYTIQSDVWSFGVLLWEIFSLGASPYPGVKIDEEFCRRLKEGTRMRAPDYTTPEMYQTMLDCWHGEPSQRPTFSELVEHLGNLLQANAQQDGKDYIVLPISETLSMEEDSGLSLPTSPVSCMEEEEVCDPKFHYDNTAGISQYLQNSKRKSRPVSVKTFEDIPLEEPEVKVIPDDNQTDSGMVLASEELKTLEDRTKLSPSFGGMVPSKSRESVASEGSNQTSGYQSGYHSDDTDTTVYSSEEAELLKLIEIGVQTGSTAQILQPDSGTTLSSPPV
# [6] = target: T1, von Hippel-Lindau disease tumor suppressor/Vascular endothelial growth factor receptor 2; assay: PROTAC activity at VHL/VEGFR2 in human HGC-27 cells assessed as induction of VEGRF2 protein degradation at 10 uM incubated for 2 hrs by Western blot analysis; assay type: cell-based
# [7] = target: T1, von Hippel-Lindau disease tumor suppressor/Vascular endothelial growth factor receptor 2; assay: PROTAC activity at VHL/VEGFR2 in human HGC-27 cells assessed as induction of VEGRF2 protein degradation at 1 uM incubated for 2 hrs by Western blot analysis; assay type: cell-based
Activity [3],IC50 [5] [µM],Activity [6],Activity [7],Compound,IC50 at 72 h [1] [µM],IC50 at 72 h [2] [µM],IC50 (HGC-27) [µM],IC50 at 72 h [4] [µM]
inactive,0.0027,–,–,Cc1ccc(NC(=O)Cn2cc(-c3ccc4c(NC(=O)c5ccc(N)cc5)n[nH]c4c3)cn2)cc1C(F)(F)F,2.35,0.025,2.12,0.11
–,–,inactive,–,CC(C)C[C@@H](C=O)NC(=O)[C@H](CC(C)C)NC(=O)[C@H](CC(C)C)NC(=O)OCc1ccccc1 (Cbz-Leu-Leu-Leu-aldehyde),–,–,–,–
–,–,–,inactive,NS(=O)(=O)OC[C@@H]1C[C@@H](n2ccc3c(N[C@H]4CCc5ccccc54)ncnc32)C[C@@H]1O,–,–,–,–
–,0.00042,–,–,Cc1ccc(NC(=O)Cn2cc(-c3ccc4c(NC(=O)c5ccc(N6CCNCC6)cc5)n[nH]c4c3)cn2)cc1C(F)(F)F,1.32,3.57,2.49,1.7
